These results are taken from PMC12132917, “Carborane‐Based Analogs of Celecoxib and Flurbiprofen, their COX Inhibition Potential, and COX Selectivity Index” (Chemmedchem, 2025).

Like-named read-outs stand apart in the source and are kept apart here. Marks after values point to notes of the source that are not given here. Some results are limits rather than exact numbers.

The nature of data set [1]: Stability in DMSO/water (1:1, v/v) by HPLC-UV-MS or analytical HPLC. The format is physicochemical. Conditions: DMSO/H2O (1:1, v/v), RP-HPLC. How it is done:
The stability of compounds 6, 7, 9, 10, 13a,b, and 14a,b in aqueous solution was studied by HPLC‐UV‐MS or analytical HPLC measurements as well (see Supporting Information for details, “4 HPLC Stability Determination of Compounds 6, 7, 9, 10, 13a, 13b, 14a, 14b”). All compounds except 13a were stable for at least one day (Supporting Information, section 4 ).
The stability was evaluated for all compounds in a mixture of DMSO, dried over molecular sieve, and LC‐MS grade water (1:1, v/v) with the same HPLC‐UV‐MS systems as described under “Purity Determination”. The column, eluent system, flow and MS tool were operated in the same way. For the stability determination, a few milligrams of each compound were dissolved in 1 mL DMSO. To dissolve the compounds, they were vortexed and heated up if necessary. The stock solution was further diluted with water. For that, 50–100 μL of the stock solution was transferred into a vial and the same amount of LC‐MS grade water was added. The two solvents were mixed thoroughly, and the measurement with HPLC‐UV‐MS was directly started. Additionally, measurements were performed in a varying time frame, from 15 or 20 min to 1 day. Usually, the injection volume was 10 μL, and before the measurement of the samples, a blank run with only DMSO/LC‐MS grade water (1:1, v/v) was performed. […] For the latter compounds, the aforementioned system (Agilent 1200 system) and the following gradient was used: 0–3 min 45% eluent B, 3–28 min 45%–95% eluent B, 28–34 min 95% eluent B, 34–35 min 95%–45% eluent B, then 35–40 min 45% eluent B, flow: 0.75 mL min^−1.
4 Stability Determination of Compounds 6, 7, 9, 10, 13a, 13b, 14a, 14b by HPLC A few milligrams of each compound have been dissolved in 1 mL DMSO, which was stored over molecular sieve.
50-100 µL of the DMSO solution have been transferred into a separate vial together with the same amount of LC-MS grade water. The mixture was measured directly after water addition and in time intervals from 20 min to 1 d by HPLC-UV-MS or analytical HPLC measurements. All compounds were stable for at least one day except for […]
rather for its nido-carborane analog, which was anyway the most prominent side product, no further stability measurements have been performed.
Figure S74. RP-HPLC chromatograms of blank (DMSO/H2O, black and green) and compound 6, retention time: 10.5 min, purity after 1 d: >98%.
Figure S75. RP-HPLC chromatograms of blank (DMSO/H2O, blue and pink) and compound 7, retention time: 8.3 min, purity after 1 d: >96%. […]

The target of data set [2] is T1, ovine COX‐1 (Ovis aries, UniProt P05979).
T1 construct: purchased Cayman Chemical Company
T1 sequence (P05979 25-600): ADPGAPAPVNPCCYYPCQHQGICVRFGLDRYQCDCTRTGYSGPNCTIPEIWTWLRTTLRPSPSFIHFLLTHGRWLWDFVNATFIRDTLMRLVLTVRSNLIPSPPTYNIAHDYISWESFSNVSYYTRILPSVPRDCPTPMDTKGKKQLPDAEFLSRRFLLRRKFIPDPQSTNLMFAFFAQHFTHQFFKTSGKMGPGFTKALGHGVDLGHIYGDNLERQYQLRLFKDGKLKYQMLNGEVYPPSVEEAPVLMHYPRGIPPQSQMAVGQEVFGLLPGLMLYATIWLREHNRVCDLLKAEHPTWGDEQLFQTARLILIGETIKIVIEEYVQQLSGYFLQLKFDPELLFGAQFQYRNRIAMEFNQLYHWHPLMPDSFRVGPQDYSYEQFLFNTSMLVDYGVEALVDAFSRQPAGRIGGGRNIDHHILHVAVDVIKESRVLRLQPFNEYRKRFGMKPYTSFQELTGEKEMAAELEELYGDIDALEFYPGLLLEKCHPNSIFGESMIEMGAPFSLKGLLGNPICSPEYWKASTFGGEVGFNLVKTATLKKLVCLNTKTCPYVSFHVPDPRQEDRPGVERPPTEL
In words: COX Fluorescent Inhibitor Screening Assay Kit (Cayman), COX-1 inhibition. The format is biochemical. The settings on record: for IC50: read-out: IC50 [μM] (95% CI) COX‐1, absolute IC50. The text has this:
(§1) For the cyclooxygenase assays, the fluorescence‐based COX assay “COX Fluorescent Inhibitor Screening Assay Kit” (Cayman Chemical Company, Ann Arbor, MI, USA) was used according to the manufacturer's instructions. […] All concentrations have been tested at least in duplicate.

Data set [3] addresses T2, recombinant human COX‐2 (Homo sapiens, UniProt P35354).
T2 construct: purchased Cayman Chemical Company
T2 sequence (P35354 18-604): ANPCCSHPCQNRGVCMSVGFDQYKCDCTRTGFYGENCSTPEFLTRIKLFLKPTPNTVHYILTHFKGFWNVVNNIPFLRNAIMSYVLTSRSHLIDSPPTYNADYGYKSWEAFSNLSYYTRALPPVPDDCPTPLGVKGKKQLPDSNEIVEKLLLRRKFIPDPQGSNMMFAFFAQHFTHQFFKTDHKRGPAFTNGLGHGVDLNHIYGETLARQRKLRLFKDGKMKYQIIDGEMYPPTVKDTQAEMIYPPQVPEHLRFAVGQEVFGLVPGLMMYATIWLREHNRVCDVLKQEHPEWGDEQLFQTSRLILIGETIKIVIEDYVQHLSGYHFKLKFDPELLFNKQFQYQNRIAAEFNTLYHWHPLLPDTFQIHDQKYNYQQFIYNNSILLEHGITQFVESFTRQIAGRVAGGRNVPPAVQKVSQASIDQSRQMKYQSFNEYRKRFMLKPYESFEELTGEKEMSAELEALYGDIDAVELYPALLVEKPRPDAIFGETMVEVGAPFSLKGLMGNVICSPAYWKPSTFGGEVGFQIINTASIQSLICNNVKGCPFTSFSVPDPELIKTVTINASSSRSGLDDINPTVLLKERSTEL
It counts as biochemical. The settings on record: for IC50: read-out: IC50 [μM] (95% CI) COX‐2.
Source text: as §1

[4] abbreviates: Inhibition at 98 μM instead of 100 μM, n = 2.
Where [5] appears, read: 100 μM, n = 2, n.i. = no inhibition (%‐inhibition < 5 %).

“N‐[3‐(1,2‐closo‐dicarbadodecaborane)propyl]‐4‐[5‐(p‐tolyl)‐3‐(trifluoromethyl)‐1H‐pyrazol‐1‐yl]benzenesulfonamide [Compound 6]”: the “purity after 1 d” value in data set [1] was above 98%. In addition, in data set [2] (n = 2), the “%‐inhibition at 100 [μM] (n = 2) COX‐1” value is at most 55%. For the same substance, the “%‐inhibition (n = 2) COX‐1” value in data set [2] (setting [4]) is 9 ^b) %. The “%‐inhibition at 100 [μM] (n = 2) COX‐2” value in data set [3] (setting [5]) was at most 55%. The “%‐inhibition (n = 2) COX‐2” value in data set [3] (setting [4]) is recorded as 54 ^b) %. Moreover, the IC50 in data set [3] (absolute IC50) came out at 120 µM.

In the case of “Cesium (R/S)‐2‐[2‐fluoro‐(1,1'‐biphenyl)‐4‐yl]‐N‐(7,8‐nido‐dicarbadodecahydroundecaborate(−1))‐ethylpropanamide [Compound 14b]”, the “%‐inhibition at 100 [μM] (n = 2) COX‐1” value in data set [2] (n = 2) is reported as 72%. Besides, the “SI = IC50(COX‐1)/IC50(COX‐2)” value in data set [3] is 2.7. For the same substance, in data set [3] (100 µM), the “%‐inhibition at 100 [μM] (n = 2) COX‐2” value was determined as 80%.

In the case of “Di‐cesium N,N‐bis[3‐(7,8‐nido‐dicarbadodecahydroundecaborate(−1))propyl]‐4‐[5‐(p‐tolyl)‐3‐(trifluoromethyl)‐1H‐pyrazol‐1‐yl]benzenesulfonamide [Compound 10]”, the “purity after 1 d” value in data set [1] is on record as above 99%. In data set [2] (n = 2), the “%‐inhibition at 100 [μM] (n = 2) COX‐1” value stood at 103%. Also, in data set [2], the IC50 amounted to 3.49 µM. Besides, the “%‐inhibition at 100 [μM] (n = 2) COX‐2” value in data set [3] (setting [5]) was determined as 103%. In data set [3] (absolute IC50), the “IC50 [μM] (95% CI) COX‐2” value is listed as “sub‐μM range” and the IC50 was found to be 0.34 µM. Besides, the “SI = IC50(COX‐1)/IC50(COX‐2)” value in data set [3] (selectivity index) is 10.3.

Take “N,N‐Bis[3‐(1,2‐closo‐dicarbadodecaborane)propyl]‐4‐[5‐(p‐tolyl)‐3‐(trifluoromethyl)‐1H‐pyrazol‐1‐yl]benzenesulfonamide [Compound 9]”: the “purity after 1 d” value in data set [1] is listed as above 99%. For the same substance, the concentration for half-maximal inhibition (IC50) in data set [2] is above 320 µM.

As to “Cesium (R/S)‐2‐[2‐fluoro‐(1,1′‐biphenyl)‐4‐yl]‐N‐(7,8‐nido‐dicarbadodecahydroundecaborate(−1))‐methylpropanamide [Compound 14a]”, the “%‐inhibition at 100 [μM] (n = 2) COX‐1” value in data set [2] (n = 2) came out at 94%. In addition, the “SI = IC50(COX‐1)/IC50(COX‐2)” value in data set [3] was found to be 1.9. The “%‐inhibition at 100 [μM] (n = 2) COX‐2” value in data set [3] (100 µM) came to 91%.

As for “Cesium N‐[3‐(7,8‐nido‐dicarbadodecahydroundecaborate(−1))propyl]‐4‐[5‐(p‐tolyl)‐3‐(trifluoromethyl)‐1H‐pyrazol‐1‐yl]benzenesulfonamide [Compound 7]”, the “purity after 1 d” value in data set [1] is recorded as above 96%. Also, the “%‐inhibition at 100 [μM] (n = 2) COX‐1” value in data set [2] (n = 2) is recorded as 94%. In addition, the results for the IC50 in data set [2] and in data set [3] (absolute IC50) were 11.2 µM and 8.75 µM, respectively. Besides, in data set [3] (setting [5]), the “%‐inhibition at 100 [μM] (n = 2) COX‐2” value is listed as 100%. Besides, the “SI = IC50(COX‐1)/IC50(COX‐2)” value in data set [3] (selectivity index) is 1.28.

As a reminder, the IC50 is the concentration that gives 50% inhibition.
